Results on eleven compounds are retold here after PubChem BioAssay (NCI).

Where “and” joins values, the source holds several entries; their conditions need not be identical. Equal values may be shown once.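 All cell lines were grown in 96-well plates and treated with compound for 48 hours. GI50 = concentration required for 50% inhibition of growth. TGI: concentration producing complete growth inhibition.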 Some results are limits rather than exact numbers.

Among the test systems are BT-549 breast; NCI/ADR-RES ovarian; U251 CNS; HT29 colon; CCRF-CEM leukemia; MOLT-4 leukemia; HCT-116 colon; LOX IMVI melanoma.
Common to all, as to experiment: NCI anticancer screen, dose series, 48 h

Consider `N#Cc1ccc(NC(=O)Nc2ccc(Oc3ccc(NC(=O)Nc4ccc(C#N)cc4)cc3)cc2)cc1`, for which the GI50 is 3.48 µM in the test with BT-549 breast; 13 µM in the test with NCI/ADR-RES ovarian; 4.85 µM in the test on U251 CNS; 90 µM with HT29 colon; 22.1 µM in the test with CCRF-CEM leukemia; 1.12 µM in the test with MOLT-4 leukemia. The GI50 with HCT-116 colon is 4.02 µM; in the test on LOX IMVI melanoma, 15.7 µM. The TGI is 24.2 µM in the test with BT-549 breast; more than 100 µM in the test on NCI/ADR-RES ovarian; 27.8 µM in the test with U251 CNS; more than 100 µM in the test on HT29 colon; more than 100 µM in the test on CCRF-CEM leukemia; 37.7 µM with MOLT-4 leukemia. The TGI in the test with HCT-116 colon and with LOX IMVI melanoma was more than 100 µM throughout.
Take `C=C1C(=O)O[C@H]2[C@H]1CC/C(Cn1cc(-c3ccc(OC)cc3)nn1)=C\CC[C@@]1(C)O[C@@H]21`: the GI50 in the test on BT-549 breast is 1.31 µM; with NCI/ADR-RES ovarian, 3.08 µM; in the test on U251 CNS, 9.45 µM; in the test on HT29 colon it was 1.23 µM; in the test with CCRF-CEM leukemia, 0.29 µM; in the test with MOLT-4 leukemia it was 1.13 µM. Besides, the GI50 is 0.488 µM with HCT-116 colon and 1.16 µM with LOX IMVI melanoma. Further, the TGI with BT-549 breast turned out to be 2.89 µM; in the test with NCI/ADR-RES ovarian, 12.4 µM; in the test with U251 CNS, 21.5 µM; with HT29 colon it was 2.86 µM; in the test with CCRF-CEM leukemia, 0.823 µM; in the test with MOLT-4 leukemia, 3.66 µM. The values for the TGI with HCT-116 colon and in the test with LOX IMVI melanoma were 1.79 µM and 2.51 µM, respectively.
Turning to `COc1ccc(NC2=CC(=O)C(=O)c3ccccc32)nn1`, the TGI was 2.05 µM in the test on BT-549 breast; 3.65 µM in the test with NCI/ADR-RES ovarian; 12.4 µM in the test with U251 CNS; 3.54 µM in the test with HT29 colon; more than 100 µM with CCRF-CEM leukemia; 1.76 µM in the test with MOLT-4 leukemia. Moreover, the TGI with LOX IMVI melanoma turned out to be 4.14 µM.
Turning to `CCN(CC)c1ccc(/C=C/c2ccc3cc(C)ccc3[n+]2CC)cc1`, the GI50 in the test on BT-549 breast is 0.0314 µM; in the test on NCI/ADR-RES ovarian, 5.69 µM; with U251 CNS, 0.0441 µM; with HT29 colon it was 0.0771 µM; in the test on CCRF-CEM leukemia, 0.299 µM; in the test with MOLT-4 leukemia it was 0.161 µM. Besides, the results for the GI50 with HCT-116 colon and in the test with LOX IMVI melanoma were 0.033 µM and 0.0666 µM, respectively. Moreover, the TGI in the test on BT-549 breast turned out to be 1.39 µM; in the test with NCI/ADR-RES ovarian, 47.4 µM; in the test on U251 CNS it was 14.5 µM; with HT29 colon it was 2.19 µM; with CCRF-CEM leukemia it was 29.9 µM; in the test with MOLT-4 leukemia, 2.65 µM. For the same compound, the TGI stood at 2.57 µM in the test with HCT-116 colon and 1.2 µM in the test with LOX IMVI melanoma.
`C[C@]12CC[C@H]3[C@@H](CC=C4C[C@@H](O)CC[C@@]43C)[C@@H]1CC[C@@H]2N(CCO)CCO`: the TGI in the test on BT-549 breast, with NCI/ADR-RES ovarian, in the test on U251 CNS, in the test with HT29 colon, in the test on CCRF-CEM leukemia and in the test on MOLT-4 leukemia was more than 100 µM throughout. For the same compound, the TGI with HCT-116 colon and in the test on LOX IMVI melanoma was more than 100 µM throughout.
On to `COc1ccc(/C(COc2c(-c3ccccc3)oc3ccccc3c2=O)=N\O)cc1`, for which the GI50 with BT-549 breast is 12.3 µM; in the test with NCI/ADR-RES ovarian, 11.4 µM; in the test with U251 CNS, 18.9 µM; with HT29 colon it was 20.7 µM; with CCRF-CEM leukemia it was 37 µM; in the test with MOLT-4 leukemia it was 22.9 µM. Also, the GI50 with HCT-116 colon was 21.8 µM; with LOX IMVI melanoma, 12.4 µM. The TGI in the test on BT-549 breast was 25.6 µM; in the test with NCI/ADR-RES ovarian, 39.6 µM; in the test with U251 CNS, more than 50 µM; in the test on HT29 colon, more than 50 µM; with CCRF-CEM leukemia, more than 50 µM; in the test with MOLT-4 leukemia, more than 50 µM. The values for the TGI in the test on HCT-116 colon and in the test with LOX IMVI melanoma were more than 50 µM and 26.5 µM, respectively.
With `CCN(CC)CCOc1ccc(/C(=C(\Cl)c2ccccc2)c2ccccc2)cc1`, the GI50 with BT-549 breast was 5.48 µM and 2.91 µM; in the test with NCI/ADR-RES ovarian it was 5.56 µM and 3.34 µM; in the test with U251 CNS it was 1.72 µM and 1.53 µM; in the test with HT29 colon, 0.944 µM and 0.353 µM; in the test with MOLT-4 leukemia, 2.98 µM and 3.71 µM; in the test on HCT-116 colon it was 2.03 µM and 1.49 µM. In the test with LOX IMVI melanoma, the GI50 is 0.916 µM and 1.67 µM. The TGI in the test on BT-549 breast is 11.9 µM and 12.1 µM; in the test with NCI/ADR-RES ovarian, 12.2 µM and 14.4 µM; in the test on U251 CNS, 7.22 µM and 3.51 µM; with HT29 colon, 2.21 µM and 1.38 µM; with MOLT-4 leukemia, 11.8 µM and 13.1 µM; in the test with HCT-116 colon it was 7.14 µM and 3.07 µM. Also, the TGI in the test on LOX IMVI melanoma was 1.89 µM and 3.22 µM.
`C=CC(=O)N1CC2(CCN(c3nc(OC4CCN(CCCOC)CC4)nc4c(OCC(F)(F)F)c(-c5c(C)ccc6[nH]ncc56)c(C5CC5)cc34)CC2)C1`: the GI50 in the test with BT-549 breast is 2.26 µM; in the test with NCI/ADR-RES ovarian, 14.8 µM; in the test with U251 CNS, 2.81 µM; in the test with HT29 colon, 2.28 µM; in the test on CCRF-CEM leukemia, 2.46 µM; in the test on MOLT-4 leukemia, 1.67 µM. The values for the GI50 in the test on HCT-116 colon and in the test on LOX IMVI melanoma were 1.95 µM and 1.7 µM, respectively. For the same compound, the TGI with BT-549 breast is 5.71 µM; with NCI/ADR-RES ovarian, 36.6 µM; in the test on U251 CNS, 10 µM; in the test with HT29 colon, 5.83 µM; in the test with CCRF-CEM leukemia, 8.09 µM; in the test on MOLT-4 leukemia, 6.06 µM. Also, the figures for the TGI in the test with HCT-116 colon and in the test with LOX IMVI melanoma were 4.17 µM and 3.15 µM, respectively.
For `Oc1c(CN2CCC(N3CCCCC3)CC2)cc(Cc2cc(CN3CCC(N4CCCCC4)CC3)c(O)c3ncccc23)c2cccnc12`, the GI50 in the test on BT-549 breast is 1.48 µM; with NCI/ADR-RES ovarian it was 3.12 µM; with U251 CNS, 0.835 µM; with HT29 colon it was 1.07 µM; in the test with CCRF-CEM leukemia, 0.403 µM; in the test with MOLT-4 leukemia, 0.3 µM. Also, the GI50 is 0.725 µM with HCT-116 colon and 0.62 µM with LOX IMVI melanoma. Moreover, the TGI in the test with BT-549 breast came out at 5.13 µM; in the test on NCI/ADR-RES ovarian it was 17.9 µM; in the test with U251 CNS it was 13.6 µM; in the test with HT29 colon it was 5.39 µM; in the test on CCRF-CEM leukemia, 3.51 µM; in the test with MOLT-4 leukemia, 6.22 µM. Moreover, the TGI in the test with HCT-116 colon was found to be 7.17 µM; with LOX IMVI melanoma, 2.89 µM.
With `COc1ccc(/C=C/c2nccc3ccccc23)cc1OC`, the TGI in the test with BT-549 breast, in the test on NCI/ADR-RES ovarian, in the test on U251 CNS, in the test with HT29 colon, with CCRF-CEM leukemia and in the test on MOLT-4 leukemia was more than 10 µM each time. In addition, the TGI with HCT-116 colon and in the test with LOX IMVI melanoma was more than 10 µM each time.
Regarding `CC[C@@H]1CN(C)[C@H]2Cc3c([nH]c4ccccc34)C(=O)C[C@H]1C2C(=O)OC` (stereo partly specified), the TGI in the test with BT-549 breast, in the test on NCI/ADR-RES ovarian, with U251 CNS, in the test with HT29 colon, in the test on CCRF-CEM leukemia and in the test on MOLT-4 leukemia was more than 100 µM each time. Further, the TGI in the test on HCT-116 colon and in the test with LOX IMVI melanoma was more than 100 µM throughout.
